Series [1] has as its system human brain glioma cell line (HEB). As to the kind of experiment: SRB tumor cell growth inhibition, HEB. Particulars: 72 h, 3 days, read-out: human brain glioma cell line HEB growth inhibition rate %. It is filed as cell-based. The source says:
(§1) A Sulforhodamine B (SRB) colorimetric method is used to perform in vitro growth inhibition experiments on tumor cells with the isolated monomeric compounds A human brain glioma cell line (HEB) and a human hepatocellular carcinoma cell line (Hep-G2) both from Cell Resource Center, Institute of Basic Medical Sciences ([…]), China. Tumor cells in a logarithmic growth phase are selected and digested with trypsin followed by adjusting a cell concentration to 2×10^4 cells/mL with a Roswell Park memorial institute 1640 (RPMI 1640) medium containing 10% fetal bovine serum to obtain a tumor cell suspension. Sample solutions: the compound I, the compound II, and the compound III prepared in the embodiment 3 are separately added with DMSO to prepare 200 μM of the sample solutions. Control antibiotic solution: The antibiotic 5-fluorouracil (5-FU) is diluted with DMSO to prepare 100 μM of the control antibiotic solution. The tumor cell suspensions in Table 11 are inoculated into a 96-well culture plate at 190 μL per well, and then incubated at 37° C. with 5% carbon dioxide (CO2) for 24 hours. The culture wells are divided into drug wells, control wells, and blank wells. […] The blank wells are added with 10 μL of the RPMI 1640 medium containing 10% fetal bovine serum and an equal volume of DMSO as a solvent. The 96-well culture plate is then at 37° C. with 5% CO2 for incubation for 3 days followed by removing culture medium. Then, each well of the 96-well culture plate is slightly added with 100 μL of the 50% TCA solution pre-cooled at 4° C., and then allowed to stand for 5 min, followed by moving the 96-well culture plate to 4° C. for 1 hour to fix cells to obtain a cell-fixed plate. After discarding the fixing solution from the cell-fixed plate, the wells of the cell-fixed plate are washed five times with distilled water to remove TCA and then air-dried for 1 hour to obtain a first dried plate. Each well of the first dried plate is added with 80 μL of the 0.4% SRB solution for staining at room temperature for 30 min to obtain a stained plate. After discarding the staining solution of the stained plate, the stained plate is washed five times by 1% acetic acid aqueous solution to fully remove unbound SRB and then air-dried for 1 hour to obtain a second dried plate. Each well of the second dried plate is added with 150 μL of the 10 mM Tris-based solution for dissolving, and then oscillated for 5 min on a mini shaker (Mini shaker Kylin-Bell Lab instruments) to obtain an oscillated plate. Samples from each well of the oscillated plate are taken and an OD value at 570 nm is measured for each sample by using an M5 microplate reader.

Series [2] concerns human hepatocellular carcinoma cell line (Hep-G2). As to the kind of experiment: SRB tumor cell growth inhibition, Hep-G2. Conditions: HepG2, 72 h, 3 days, read-out: human hepatocellular carcinoma cell line Hep-G2 growth inhibition rate %. The format is cell-based.
Description: as §1

Series [3] deals with Candida albicans ATCC 10231. As to the kind of experiment: Antifungal activity against Candida albicans (serial dilution MIC). It is filed as cell-based. Particulars: 48 hours at 30° C., absorbance at 600 nm; for MIC: Candida albicans, ATCC10231. As to the method: Candida albicans ATCC 10231, as an indicator strain, is activated for 3 days at 30° C. on the Sabouraud solid medium, and then amplified for 2 days at 30° C. and 180 rpm in the Sabouraud liquid medium to obtain an indicator liquid for antifungal activity testing.
An outermost ring of a 96-well plate is filled with 100 μL of the Sabouraud liquid medium for blank culture to prevent contamination; a first well of the 96-well plate is added with samples and the indicator liquid, with a total solution volume of 200 μL and a sample concentration of 128 μg/mL in the first well. A “serial dilution method” is used to achieve sample concentrations of 64, 32, 16, 8, 4, 2, 1, 0.5, and 0.25 μg/mL respectively in subsequent wells. Each sample has three parallel controls, and is incubated for 48 hours at 30° C. Then, the absorbance of the indicator liquid is measured at 600 nm using a microplate reader, and minimum inhibitory concentrations (MIC) of the compounds are recorded. The samples are the compound I, the compound II, and the compound III, with Amphotericin B as the control.

Series [4] can be described thus: DPPH antioxidant activity test. The format is biochemical. Conditions: for Antioxidant activity IC50 value: DPPH scavenging, 37° C. half an hour. On the procedure: 1 mg of solid DPPH is dissolved in 24 mL of methanol and then ultrasonicated for 5 min, followed by shaking thoroughly to obtain DPPH solution to ensure uniformity throughout the DPPH solution. 1 mL of the DPPH solution is taken and diluted by adding 0.5 mL of 95% methanol to obtain a diluted solution with an absorbance in a range of 0.6-1.0. The samples are added with methanol to prepare 1 mg/mL of sample solutions. The sample solutions are separately added to the DPPH solution while mixing continuously with a small start amount to obtain mixed solutions and an addition amount of the sample solutions gradually increases. Solution decolorization is observed when adding the sample solutions. When color of the mixed solutions has essentially faded, a maximum amount of the added sample solution is recorded. Based on the maximum amount, five additional amounts are set in an arithmetic sequence moving backwards. A final measurement is performed according to the arithmetic sequence, and for each amount, three parallel data points are measured. An absorbance value (A value) at each amount may be measured after placing the mixed solutions in a 37° C. oven for half an hour. An experimental antioxidant concentration serves as an x-axis and a scavenging rate serves as a y-axis, then a linear regression equation is calculated. 50% scavenging rate is substituted into the linear regression equation to obtain a corresponding x-axis value, which is a half-maximal inhibitory concentration (IC50) value. The samples are the compound I, the compound II, and the compound III, with vitamin C (Vc) as the control. The scavenging rate=((A0−A)/A0)×100; where A0 represents a value before adding the sample solutions, and A represents a value after adding the sample solutions.

Series [5] has as its system Candida albicans. Conditions: reported in literature; cited from earlier work.
The conditions of series [6]: according to literature searches; cited from earlier work.
For series [7], the system named is silkworms and American moths. Particulars: against silkworms and American moths; literature; cited from earlier work.

Values after ≈ are worked out from the molar mass of the structure shown.

`O=c1[nH]cc(F)c(=O)[nH]1` [Compound 5-FU, 5-fluorouracil, reference compound]: the inhibition at 5 µM came out at 69.5% in series [1] (positive control, 5 μM) and 71.3% in series [2] (positive control, 5 μM).

The compound `C/C=C/C=C/C=C/C(=O)N[C@H]1CCCNC(=O)[C@H](C)NC(=O)[C@H](C(C)C)N(C)C1=O` [Compound II, JBIR-15] showed an MIC in series [3] of 32 µg/mL (≈ 76.5 µM). Also, in series [4], the “antioxidant activity (in words)” value is listed as “moderate antioxidant activity” and the “Antioxidant activity IC50 value” came to 400 µg/mL. In addition, the inhibition at 10 µM in series [1] is -6.04%. For the same compound, the inhibition at 10 µM in series [2] came out at 11.8%. Moreover, the “anti-Candida albicans activity, minimum inhibitory concentration (MIC)” value in series [5] was 30 µg/mL.

`C/C=C/C=C/C=C/C(=O)N[C@H]1CCCNC(=O)[C@H](C)N(C)C(=O)[C@H](C(C)C)N(C)C1=O` [Compound I, aspochracin]: the MIC in series [3] is more than 128 µg/mL. For the same compound, in series [4], the “antioxidant activity (in words)” value is on record as “moderate antioxidant activity” and the “Antioxidant activity IC50 value” was determined as 420 µg/mL. In series [1], the inhibition at 10 µM was -19.9%. Also, the inhibition at 10 µM in series [2] was -17.9%. Moreover, the mammalian toxicity entry in series [6] is “extremely low mammalian toxicity”. Moreover, the insecticidal activity result in series [7] is reported as “recognized insecticidal activity”.

Turning to `O=C1O[C@H]([C@@H](O)CO)C(O)=C1O` [Vc, vitamin C, reference compound], in series [4], the “Antioxidant activity IC50 value” is 9 µg/mL.

In the case of `C[C@@H]1[C@H](O)[C@@H](C)/C=C/C=C/C=C/C=C/C=C/C=C/C=C/[C@H](O[C@@H]2O[C@H](C)[C@@H](O)[C@H](N)[C@@H]2O)C[C@@H]2O[C@](O)(C[C@@H](O)C[C@@H](O)[C@H](O)CC[C@@H](O)C[C@@H](O)CC(=O)O[C@H]1C)C[C@H](O)[C@H]2C(=O)O` [Amphotericin B, reference compound], in series [3], the “MIC value against the Candida albicans ATCC 10231” value came out at 2 µg/mL (≈ 2.16 µM).

Compound `C/C=C/C=C/C=C/C(=O)N[C@H]1CCCCNC(=O)[C@H](C)N(C)C(=O)[C@H](C(C)C)N(C)C1=O` [Compound III, sclerotiotide C] yielded an MIC in series [3] of more than 128 µg/mL. Also, in series [4], the “antioxidant activity (in words)” value was “moderate antioxidant activity” and the “Antioxidant activity IC50 value” was 430 µg/mL. For the same compound, the inhibition at 10 µM in series [1] was -13.7%. The inhibition at 10 µM in series [2] was found to be 21.1%.
